Results reported in ChEMBL document CHEMBL1201862, “PubChem BioAssay data set” (2004).
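1) Cells in 96-well plates. 2) Compound, 48 h, 5 concentrations. 3) Linear interpolation between surrounding doses. 4) Unreached endpoint = highest concentration. Here, GI50 denotes the concentration required for 50% inhibition of growth.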 Activity calls are given as the source filed them. No stated cut-off is given here; in the data, active = GI50 up to about 1.1 µM and inactive = higher.

Legend:
Test in all cases: NCI tumour cell line growth inhibition, 48 h
[1] = test system: OVCAR-3
[2] = test system: U-251
[3] = test system: OVCAR-4
[4] = test system: RPMI-8226
[5] = test system: SK-MEL-28
[6] = test system: SF-539
[7] = test system: SK-MEL-2
[8] = test system: OVCAR-8
[9] = test system: HCC 2998
[10] = test system: EKVX
[11] = test system: ACHN
[12] = test system: HT-29
[13] = test system: IGROV-1
[14] = test system: 786-0
[15] = test system: A549
[16] = test system: SR
[17] = test system: SF-268
[18] = test system: COLO 205
[19] = test system: SN12C

| SMILES | GI50 [1] | GI50 [2] | GI50 [3] | GI50 [4] | GI50 [5] | GI50 [6] | GI50 [7] | GI50 [8] | GI50 [9] | GI50 [10] | GI50 [11] | GI50 [12] | GI50 [13] | GI50 [14] | GI50 [15] | GI50 [16] | GI50 [17] | GI50 [18] | GI50 [19] |
| --- | --- | --- | --- | --- | --- | --- | --- | --- | --- | --- | --- | --- | --- | --- | --- | --- | --- | --- | --- |
| O=C1CC(c2c[nH]c3ccccc23)C(=O)N1 (stereo unspecified) | > 100 µM (inactive) | > 100 µM (inactive) | > 100 µM (inactive) | > 100 µM (inactive) | > 100 µM (inactive) | > 100 µM (inactive) | > 100 µM (inactive) | > 100 µM (inactive) | > 100 µM (inactive) | > 100 µM (inactive) | > 100 µM (inactive) | > 100 µM (inactive) | > 100 µM (inactive) | > 100 µM (inactive) | > 100 µM (inactive) | – | – | – | – |
| CCSc1nnc(CSc2nc(-c3ccccc3)c(-c3ccccc3)[nH]2)n1-c1ccccc1 | 15.9 µM (inactive) | 17.9 µM (inactive) | – | 21.5 µM (inactive) | 21 µM (inactive) | – | 21.7 µM (inactive) | 21.6 µM (inactive) | 20.8 µM (inactive) | 24.4 µM (inactive) | 17.2 µM (inactive) | 19.4 µM (inactive) | 20.9 µM (inactive) | 19.8 µM (inactive) | 29.9 µM (inactive) | 24.3 µM (inactive) | 23.3 µM (inactive) | 16.1 µM (inactive) | 15.8 µM (inactive) |
| COc1cccc2cc(C)c(C(=O)c3ccccc3)nc12 | > 100 µM (inactive) | > 100 µM (inactive) | > 100 µM (inactive) | > 100 µM (inactive) | > 100 µM (inactive) | > 100 µM (inactive) | > 100 µM (inactive) | > 100 µM (inactive) | > 100 µM (inactive) | > 100 µM (inactive) | > 100 µM (inactive) | – | > 100 µM (inactive) | > 100 µM (inactive) | > 100 µM (inactive) | – | > 100 µM (inactive) | > 100 µM (inactive) | > 100 µM (inactive) |
| COc1ccc(NC(=O)CC/C(CC(=O)c2ccco2)=N/NC(=O)C(N)=O)cc1 | 46 µM (inactive) | – | > 100 µM (inactive) | 33.8 µM (inactive) | 91.2 µM (inactive) | > 100 µM (inactive) | > 100 µM (inactive) | > 100 µM (inactive) | > 100 µM (inactive) | > 100 µM (inactive) | > 100 µM (inactive) | > 100 µM (inactive) | > 100 µM (inactive) | > 100 µM (inactive) | > 100 µM (inactive) | – | 68.9 µM (inactive) | > 100 µM (inactive) | > 100 µM (inactive) |
| CCOC(=O)CC1=Nc2ccccc2SC1 | > 100 µM (inactive) | > 100 µM (inactive) | > 100 µM (inactive) | – | 1.29 µM (inactive) | > 100 µM (inactive) | > 100 µM (inactive) | > 100 µM (inactive) | > 100 µM (inactive) | > 100 µM (inactive) | > 100 µM (inactive) | > 100 µM (inactive) | > 100 µM (inactive) | > 100 µM (inactive) | > 100 µM (inactive) | – | 0.031 µM (active) | > 100 µM (inactive) | > 100 µM (inactive) |
| C[C@]12CC/C(=N\O)C=C1CC[C@@H]1C2CC[C@@]2(C)C1CC[C@@H]2OC1CCCCO1 (stereo partly specified) | 16.9 µM (inactive) | 17.9 µM (inactive) | 15.6 µM (inactive) | 15.7 µM (inactive) | 22.7 µM (inactive) | > 10 µM (inactive) | 16.7 µM (inactive) | > 100 µM (inactive) | 15.4 µM (inactive) | 17.7 µM (inactive) | 16.3 µM (inactive) | 14.3 µM (inactive) | 35.6 µM (inactive) | 17.7 µM (inactive) | 22.6 µM (inactive) | – | 23.3 µM (inactive) | 17.4 µM (inactive) | > 10 µM (inactive) |
| CC(=O)CCC1(c2ccccc2)OC(=O)C(C#N)=C1c1ccccc1 (stereo unspecified) | 86.3 µM (inactive) | 88.1 µM (inactive) | 80.4 µM (inactive) | 39.8 µM (inactive) | > 100 µM (inactive) | > 100 µM (inactive) | > 100 µM (inactive) | > 100 µM (inactive) | > 100 µM (inactive) | > 100 µM (inactive) | > 100 µM (inactive) | > 100 µM (inactive) | > 100 µM (inactive) | > 100 µM (inactive) | > 100 µM (inactive) | – | 70 µM (inactive) | > 100 µM (inactive) | > 100 µM (inactive) |
| CCOC1=NC(=O)CC(c2ccccc2)S1 (stereo unspecified) | > 100 µM (inactive) | 49.2 µM (inactive) | > 100 µM (inactive) | > 100 µM (inactive) | – | > 100 µM (inactive) | > 100 µM (inactive) | > 100 µM (inactive) | > 100 µM (inactive) | > 100 µM (inactive) | > 100 µM (inactive) | > 100 µM (inactive) | > 100 µM (inactive) | > 100 µM (inactive) | > 100 µM (inactive) | – | > 100 µM (inactive) | > 100 µM (inactive) | > 100 µM (inactive) |
| O=C(NO)C12C3C4C1C1C2C3C41C(=O)NO (stereo unspecified) | > 100 µM (inactive) | > 100 µM (inactive) | – | > 100 µM (inactive) | > 100 µM (inactive) | > 100 µM (inactive) | > 100 µM (inactive) | > 100 µM (inactive) | > 100 µM (inactive) | > 100 µM (inactive) | > 100 µM (inactive) | > 100 µM (inactive) | – | > 100 µM (inactive) | > 100 µM (inactive) | – | > 100 µM (inactive) | > 100 µM (inactive) | > 100 µM (inactive) |
| COCN1COCN(C)C1=O | > 100 µM (inactive) | > 100 µM (inactive) | > 100 µM (inactive) | > 100 µM (inactive) | > 100 µM (inactive) | > 100 µM (inactive) | > 100 µM (inactive) | > 100 µM (inactive) | > 100 µM (inactive) | > 100 µM (inactive) | > 100 µM (inactive) | > 100 µM (inactive) | > 100 µM (inactive) | > 100 µM (inactive) | > 100 µM (inactive) | – | > 100 µM (inactive) | > 100 µM (inactive) | > 100 µM (inactive) |
| C[C@@H](NC1CCC[C@@H]1O)c1ccccc1 (stereo partly specified) | > 100 µM (inactive) | > 100 µM (inactive) | > 100 µM (inactive) | > 100 µM (inactive) | > 100 µM (inactive) | – | > 100 µM (inactive) | > 100 µM (inactive) | > 100 µM (inactive) | > 100 µM (inactive) | > 100 µM (inactive) | > 100 µM (inactive) | > 100 µM (inactive) | > 100 µM (inactive) | > 100 µM (inactive) | – | – | > 100 µM (inactive) | > 100 µM (inactive) |
| CSc1c([S+](C)[O-])[nH]c2cc(Br)cc(Br)c12 (stereo unspecified) | 20.6 µM (inactive) | 0.0376 µM (active) | – | 18.8 µM (inactive) | 20.7 µM (inactive) | 22.4 µM (inactive) | – | 22 µM (inactive) | 18.3 µM (inactive) | 14.3 µM (inactive) | 24.5 µM (inactive) | 26.9 µM (inactive) | 37.1 µM (inactive) | 16 µM (inactive) | 24 µM (inactive) | – | – | 18 µM (inactive) | 16.7 µM (inactive) |
